Assay results taken from ChEMBL document CHEMBL1137216, “Identification of a new scaffold for opioid receptor antagonism based on the 2-amino-1,1-dimethyl-7-hydroxytetralin pharmacophore” (J Med Chem, 2004).

Tests used:
[1] = molecular target: T1, Delta-type opioid receptor (Homo sapiens, UniProt P41143); experiment: Inhibition of [3H]C1-DPDPE binding to human delta opioid receptor expressed in CHO cells; format: cell-based
[2] = molecular target: T2, Kappa-type opioid receptor (Homo sapiens, UniProt P41145)
T2 sequence (P41145 whole entry): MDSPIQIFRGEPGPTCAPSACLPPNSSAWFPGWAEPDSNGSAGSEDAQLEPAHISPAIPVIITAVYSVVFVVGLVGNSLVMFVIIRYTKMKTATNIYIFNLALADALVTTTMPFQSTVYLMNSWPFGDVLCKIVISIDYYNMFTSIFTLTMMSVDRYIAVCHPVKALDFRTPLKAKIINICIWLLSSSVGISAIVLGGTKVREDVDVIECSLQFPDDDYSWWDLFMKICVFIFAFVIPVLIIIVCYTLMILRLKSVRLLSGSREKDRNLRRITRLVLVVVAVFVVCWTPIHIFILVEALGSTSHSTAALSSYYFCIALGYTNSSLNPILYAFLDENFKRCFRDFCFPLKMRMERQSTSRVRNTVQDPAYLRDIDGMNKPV
Description: Antagonist potency towards human kappa opioid receptor in [35S]GTP-gamma-S, assay

Mu-type opioid receptor [3] = molecular target: T3, Mu-type opioid receptor (Homo sapiens, UniProt P35372)
T3 sequence (P35372 whole entry): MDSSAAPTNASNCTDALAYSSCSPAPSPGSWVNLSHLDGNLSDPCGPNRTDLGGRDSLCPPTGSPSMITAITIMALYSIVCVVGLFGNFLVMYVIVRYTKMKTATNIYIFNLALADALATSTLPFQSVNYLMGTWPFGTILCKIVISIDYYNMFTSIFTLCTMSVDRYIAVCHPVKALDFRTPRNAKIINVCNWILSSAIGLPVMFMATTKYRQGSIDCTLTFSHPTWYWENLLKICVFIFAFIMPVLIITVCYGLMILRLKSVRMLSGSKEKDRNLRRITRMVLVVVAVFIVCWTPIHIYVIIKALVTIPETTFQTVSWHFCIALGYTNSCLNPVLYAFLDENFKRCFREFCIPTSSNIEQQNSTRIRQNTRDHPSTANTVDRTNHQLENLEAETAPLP
Description: Antagonist potency towards human mu opioid receptor in [35S]GTP-gamma-S, assay

Mu-type opioid receptor [4] = molecular target: T3, Mu-type opioid receptor; experiment: Inhibition of [3H]DAMGO binding to human Mu opioid receptor expressed in CHO cells; format: cell-based
[5] = molecular target: T1, Delta-type opioid receptor
Description: Antagonist potency towards human delta opioid receptor in [35S]GTP-gamma-S, assay

[6] = molecular target: T2, Kappa-type opioid receptor; experiment: Inhibition of [3H]U-69593 binding to human kappa opioid receptor expressed in CHO cells; format: cell-based
Mu-type opioid receptor [7] = molecular target: T3, Mu-type opioid receptor; remark: listed apart in the source
Description: Agonist potency towards human mu opioid receptor in [35S]GTP-gamma-S, assay

T1 sequence (P41143 whole entry): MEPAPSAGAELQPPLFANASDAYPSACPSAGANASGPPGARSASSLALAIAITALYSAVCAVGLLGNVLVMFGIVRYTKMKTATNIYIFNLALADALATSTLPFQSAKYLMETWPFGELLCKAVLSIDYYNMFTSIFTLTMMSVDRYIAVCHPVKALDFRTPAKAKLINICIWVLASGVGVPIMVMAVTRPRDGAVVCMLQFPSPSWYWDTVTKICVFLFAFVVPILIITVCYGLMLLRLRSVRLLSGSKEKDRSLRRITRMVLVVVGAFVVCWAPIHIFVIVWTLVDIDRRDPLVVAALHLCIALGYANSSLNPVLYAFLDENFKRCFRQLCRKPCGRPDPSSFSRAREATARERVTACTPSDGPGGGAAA

Row | SMILES | Ki [1] [nM] | Ke [2] [nM] | Ke (Mu-type opioid receptor [3]) [nM] | Ki (Mu-type opioid receptor [4]) [nM] | Ke [5] [nM] | Ki [6] [nM] | Ke (Mu-type opioid receptor [7]) [nM]
1 | CO[C@H]1Cc2ccc(O)cc2C(C)(C)[C@@H]1NC/C=C/c1ccccc1 | 22.4 | 2.12 | 2.62 | 1.63 | 26.3 | 7.5 | –
2 | CC1(C)c2cc(O)ccc2CCC1NCC1CC1 (configuration not stated) | 3830 | – | – | 312 | – | 232 | –
3 | CO[C@H]1Cc2ccc(O)cc2C(C)(C)[C@@H]1N | 2430 | 49.3 | – | 17.5 | – | 149 | 234
4 | CC1(C)c2cc(O)ccc2CCC1N(C/C=C/c1ccccc1)C/C=C/c1ccccc1 (configuration not stated) | > 10000 | – | – | 268 | – | 1250 | –
5 | CCCN(CCC)C1CCc2ccc(O)cc2C1(C)C (configuration not stated) | 2720 | – | – | 482 | – | 552 | –
6 | C=CCN(C)C1CCc2ccc(O)cc2C1(C)C (configuration not stated) | 2220 | – | – | – | – | 263 | –
7 | CN(C)C1CCc2ccc(O)cc2C1(C)C (configuration not stated) | 4010 | – | – | 114 | – | 333 | –
8 | CC1(C)c2cc(O)ccc2CCC1N(CC1CC1)CC1CC1 (configuration not stated) | 5770 | – | – | 422 | – | 1830 | –
9 | Oc1ccc2c3c1O[C@H]1c4[nH]c5c(c4C[C@@]4(O)[C@@H](C2)N(CC2CC2)CC[C@]314)C[C@@]1(O)[C@H]2Cc3ccc(O)c4c3[C@@]1(CCN2CC1CC1)[C@H]5O4 | – | 0.03 | – | – | – | – | –
10 | CN(C/C=C/c1ccccc1)C1CCc2ccc(O)cc2C1(C)C (configuration not stated) | 591 | – | – | 39.7 | – | 207 | –
11 | C=CCN(CC=C)C1CCc2ccc(O)cc2C1(C)C (configuration not stated) | 672 | – | – | 105 | – | 55.8 | –
12 | C=CCNC1CCc2ccc(O)cc2C1(C)C (configuration not stated) | 5830 | – | – | 202 | – | 63.7 | –
13 | CC1(C)c2cc(O)ccc2CCC1NC/C=C/c1ccccc1 (configuration not stated) | 472 | 42.7 | 67.7 | 10.7 | – | 82.3 | –
14 | CCCN(C)C1CCc2ccc(O)cc2C1(C)C (configuration not stated) | 2090 | – | – | 85 | – | 184 | –
15 | CCCNC1CCc2ccc(O)cc2C1(C)C (configuration not stated) | > 10000 | – | – | 491 | – | 251 | –
16 | CN(CC1CC1)C1CCc2ccc(O)cc2C1(C)C (configuration not stated) | 601 | – | – | 104 | – | 146 | –
